The source of these data is article PMC11284600, “Many human pharmaceuticals are weak inhibitors of the cytochrome P450 system in rainbow trout (Oncorhynchus mykiss) liver S9 fractions” (Frontiers in Toxicology, 2024).

Where a name gives a salt, the structure may show the parent alone.

On the set-up of data set [1]: method as in Chemaxon. To be noted: pH 7.8; (e) empirical; ref Chemaxon; cited from earlier work.
Data set [2] is described as follows: Unbound fraction in RT-S9 by rapid equilibrium dialysis. It counts as in vitro ADME, rainbow trout (Oncorhynchus mykiss). The conditions noted are these: rainbow trout liver S9 fractions (RT-S9), 10 µM test substance, 1 mg/mL RT-S9, pH 7.8, 11°C, n = 3, read-out: Unbound fraction (fU,RT-S9). On the procedure:
The unbound (free) fractions of the test substances in RT-S9 (fU,RT-S9) were determined using rapid equilibrium dialysis assay (RED, Thermo Fisher Scientific), which exploits two-compartment inserts separated by a dialysis membrane with a molecular weight cut-off of 8,000 Da. In the RED assay, each test pharmaceutical (10 μM) was incubated in triplicate with RT-S9 (1 mg/mL) in 50 mM potassium phosphate buffer (pH 7.8) in a total volume of 300 µL on one side of the membrane (protein-containing chamber), and 350 μL of the plain phosphate buffer on the other side (protein-free chamber). To reach equilibrium, the samples were incubated on an orbital shaker (C25KC Incubator shaker, New Brunswick Scientific, 120 rpm) at 11°C for 4 h. Next, 50 µL aliquots were collected from both chambers separately and diluted by adding 50 µL of the plain buffer (to the protein-containing sample) or 50 μL of 1 mg/mL RT-S9 in the buffer (to the protein-free sample). Finally, the RT-S9 protein was precipitated by the addition of acetonitrile (+200 μL) to both samples separately, followed by incubation on ice for 30 min and centrifugation (16100 g, 15 min). The test substance concentrations in the supernatants of both samples were determined using liquid chromatography. The instrumentation and the analytical methods used for chromatographic analyses are described in detail in the Supplementary Table S2. The unbound fractions of the test substances in RT-S9 (fU,RT-S9) were calculated according to Eq. 3: fU,RT−S9=1− PC−PF/PC (3) where [PC] and [PF] are the test substance concentrations in the samples collected from protein-containing and protein-free chambers, respectively. To account for the test substance’s binding to the RT-S9, the nominal IC50 values were corrected for unbound fraction (fU,RT-S9) according to Eq. 4: Unbound IC50=Nominal IC50×fU,RT−S9 (4)

For data set [3], the target named is T1, CYP3A-like BFCOD activity (Oncorhynchus mykiss, UniProt O42563).
T1 sequence (O42563 1-518): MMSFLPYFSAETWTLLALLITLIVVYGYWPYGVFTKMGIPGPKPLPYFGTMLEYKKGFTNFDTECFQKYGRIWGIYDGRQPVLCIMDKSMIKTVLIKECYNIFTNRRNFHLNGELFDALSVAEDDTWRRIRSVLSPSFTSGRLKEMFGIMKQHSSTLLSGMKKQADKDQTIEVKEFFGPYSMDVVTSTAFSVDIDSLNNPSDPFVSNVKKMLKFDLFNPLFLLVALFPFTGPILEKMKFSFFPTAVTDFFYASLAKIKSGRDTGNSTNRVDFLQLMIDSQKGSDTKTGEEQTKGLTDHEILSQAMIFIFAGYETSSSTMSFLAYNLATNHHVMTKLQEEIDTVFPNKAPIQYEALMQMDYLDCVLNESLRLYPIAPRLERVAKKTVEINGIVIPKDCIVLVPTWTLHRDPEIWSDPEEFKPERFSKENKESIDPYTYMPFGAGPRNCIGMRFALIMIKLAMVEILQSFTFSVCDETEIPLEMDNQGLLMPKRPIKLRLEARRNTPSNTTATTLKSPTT
The experiment in a line: BFCOD inhibition in RT-S9 (IC50 shift assay). The conditions noted are these: both, Christophersen, Bornhoeved, rainbow trout (Oncorhynchus mykiss), s9, pH 7.8. On the procedure:
(§1) Commercially available rainbow trout (O. mykiss) liver S9 fractions were used as the enzyme source for the in vitro P450 inhibition assays (RTL-S9, total protein concentration 20 mg/mL, Primacyt Cell Culture Technology GmbH).
(§2) The inhibitory impacts of the test substances toward the rainbow trout liver P450 system in vitro were assessed based on EROD and BFCOD as the marker reactions for CYP1A- and CYP3A-like isoenzyme activities, respectively. […] In this study, the EROD (CYP1A) and BFCOD (CYP3A) activities were determined using 0.5 mg/mL RT-S9 (total protein) concentration and 1 or 2 mM NADPH, respectively. […] All incubations were performed in duplicate in a total volume of 100 µL of potassium phosphate buffer (0.1 M, pH 7.8), at 11°C ± 1°C on a thermostated orbital shaker (LLG Labware). The reactions were terminated by the addition of 37.5 μL of the quenching solution (0.5 M Trizma base/acetonitrile 20:80, v/v). […] The quantitation of the metabolites (resorufin or HFC) was based on linear regression of the respective standards prepared in the potassium phosphate buffer. Negative control incubations were performed separately without the marker substrate, without cofactors, and without RT-S9 to ensure that the detected fluorescence signals arise from the metabolic conversion of the marker substrates (ER or BFC) into their respective metabolites (resorufin or HFC, respectively).
(§3) In this study, the preincubation was performed using three different protocols A-C (Table 2). In the first protocol, the test substance (each separately at six different concentrations between 0.01 and 500 µM) and RT-S9 were preincubated without any cofactors, and the marker reaction was initiated by the addition of the marker substrate (ER or BFC) and NADPH (Protocol A). This enabled the determination of the inhibitory impact of the parent form of the test substance on the respective marker activity. In the second protocol, the test substance and RT-S9 were preincubated together with NADPH, and the marker reaction was initiated by the addition of the marker substrate (Protocol B). In this manner, the test substance could undergo P450 metabolism already during the preincubation step, which may reduce its concentration and thus the inhibitory impact toward the marker reactions, or result in the formation of reactive or inhibitory metabolites, which typically increases the inhibitory impact compared with the parent form (Protocol A). […] In this manner, the test substance could undergo both P450 and phase II metabolism already during the preincubation step, which may likewise reduce its concentration and inhibitory impact toward the marker reactions, and even help eliminate the possible reactive metabolites via glutathione conjugation. […] Additionally, positive control incubations of the marker substrates (ER or BFC) without the test substance (zero inhibitor concentration) were included in each series to determine the basal EROD or BFCOD activity in RT-S9.
(§4) The residual solvent concentration was kept constant at all inhibitor concentrations, including zero, to eliminate its impact on the IC50 concentrations derived from the empirical data. The IC50 shifts for Protocols B and C were calculated according to Eq. 2: IC50 shift=IC50,Protocol A/IC50,Protocol B or Protocol C (2)
(§5) In this manner, the impact of the test substance’s own metabolism (during the preincubation step) on the inhibitory impact could be evaluated.

In data set [4] the target is T2, CYP3A-like 7-benzyloxy-4-trifluoromethylcoumarin O-debenzylase (BFCOD) activity in rainbow trout liver S9 fractions (Oncorhynchus mykiss, UniProt O42563).
T2 sequence (O42563 1-518): T1 sequence (O42563 1-518)
The experiment in a line: BFCOD inhibition in RT-S9 (IC50 shift assay). The conditions noted are these: within the tested concentration range. On the procedure:
as §1, §2, §3, §4, §5

The test system of data set [5] is CYP1A-like ethoxyresorufin O-deethylase (EROD) activity. Description: in vitro. The conditions noted are these: both, Christophersen, Bornhoeved, rainbow trout (Oncorhynchus mykiss); for inhibition at 10 min: pH 7.8. On the procedure: as §1, §2, §3, §4, §5
Data set [6] has as its system CYP1A-like ethoxyresorufin O-deethylase (EROD) activity in rainbow trout liver S9 fractions. Description: in vitro. On the procedure: as §1, §2, §3, §4, §5
Another data set concerns CYP1A-like EROD activity. Description: in vitro. To be noted: both, Christophersen, Bornhoeved, rainbow trout (Oncorhynchus mykiss). On the procedure:
as §1, §2, §3, §4, §5

In a further data set the test system is Human CYP1A. The conditions noted are these: ref Drugbank unless otherwise stated (Dragovic et al., 2013; Conard and Ober 1984; Niwa et al., 2005); cited from earlier work.
Where [7] appears, read: pH 7.8, EROD inhibition in RT-S9, Nominal IC50.

The fraction unbound is the share of the substance not bound to proteins or other matrix. As a reminder, the IC50 is the midpoint of a concentration-inhibition curve. Broadly, the inhibition is the change of the read-out against control, counted positive when it falls. A lower inhibition goes with a weak effect. For `CNCC[C@@H](Oc1ccccc1C)c1ccccc1` [Atomoxetine, atomoxetine hydrochloride], in data set [1], the Water solubility is reported as 27.8 (e) mg/mL. Moreover, in data set [2], the fraction unbound at 4 h, 10 µM came out at 0.2 ± 0.03. Also, in data set [3], the IC50 at 20 min is > 25 µM. Besides, the “BFCOD inhibition in RT-S9 (in words)” value in data set [4] is “did not significantly inhibit”. The inhibition at 10 min in data set [5] is ≤ 50%. The IC50 at 10 min is > 100 µM in data set [5] (setting [7]) and 20 ± 4 µM in data set [5] (pH 7.8, EROD inhibition in RT-S9, Unbound IC50). Besides, the “EROD inhibition in RT-S9 (in words)” value in data set [6] is reported as “inhibited selectively only EROD activity”. The IC50 shift at 10 min in the data set with CYP1A-like EROD activity (s9, pH 7.8, EROD inhibition in RT-S9, IC50 shift (A/B)) was 0.9 ± 0.1; with CYP1A-like EROD activity (s9, pH 7.8, EROD inhibition in RT-S9, IC50 shift (A/C)), 1.1.
Regarding `O=C(NCC1CCCCN1)c1cc(OCC(F)(F)F)ccc1OCC(F)(F)F` (stereo not drawn) [Flecainide, flecainide acetate], the “Human CYP1A interactions: substrate status” value with Human CYP1A was “Substrate”. For the same molecule, the fraction unbound at 4 h, 10 µM in data set [2] is 0.36 ± 0.03. Moreover, in data set [3], the IC50 at 20 min is > 25 µM. Also, the “BFCOD inhibition in RT-S9 (in words)” value in data set [4] is on record as “did not significantly inhibit”. Also, the inhibition at 10 min in data set [5] was ≤ 50%. Further, in data set [5] (setting [7]), the IC50 at 10 min is > 100 µM. In data set [6], the “EROD inhibition in RT-S9 (in words)” value is given as “inhibited selectively only EROD activity” and the midpoint of inhibition, the IC50, lay at 82 ± 14 µM.
